Source: paper PMC12590467, “Accessory Subunit Regulates Thiyl Radical Formation in Benzylsuccinate Synthase” (Biochemistry, 2025)

Target: T1, BSSαβγ (benzylsuccinate synthase) (Thauera aromatica, UniProt O68395)
T1 construct: gene tutD; BSSαγ mixed 1:2 with BSSβ; (αβγ)2; α 865, β 81, γ 60 residues; resolved α 9-865, β 13-81, γ 5-59; catalytic Cys493; with Benzylsuccinate synthase beta subunit; Benzylsuccinate synthase gamma subunit
Test: X-ray crystal structure, […] Å
Type: binding
Settings: active site; toluene not added, modelled from glovebox atmosphere; also turned over with fumarate; pH 8.5

T1 sequence (O68395 1-864): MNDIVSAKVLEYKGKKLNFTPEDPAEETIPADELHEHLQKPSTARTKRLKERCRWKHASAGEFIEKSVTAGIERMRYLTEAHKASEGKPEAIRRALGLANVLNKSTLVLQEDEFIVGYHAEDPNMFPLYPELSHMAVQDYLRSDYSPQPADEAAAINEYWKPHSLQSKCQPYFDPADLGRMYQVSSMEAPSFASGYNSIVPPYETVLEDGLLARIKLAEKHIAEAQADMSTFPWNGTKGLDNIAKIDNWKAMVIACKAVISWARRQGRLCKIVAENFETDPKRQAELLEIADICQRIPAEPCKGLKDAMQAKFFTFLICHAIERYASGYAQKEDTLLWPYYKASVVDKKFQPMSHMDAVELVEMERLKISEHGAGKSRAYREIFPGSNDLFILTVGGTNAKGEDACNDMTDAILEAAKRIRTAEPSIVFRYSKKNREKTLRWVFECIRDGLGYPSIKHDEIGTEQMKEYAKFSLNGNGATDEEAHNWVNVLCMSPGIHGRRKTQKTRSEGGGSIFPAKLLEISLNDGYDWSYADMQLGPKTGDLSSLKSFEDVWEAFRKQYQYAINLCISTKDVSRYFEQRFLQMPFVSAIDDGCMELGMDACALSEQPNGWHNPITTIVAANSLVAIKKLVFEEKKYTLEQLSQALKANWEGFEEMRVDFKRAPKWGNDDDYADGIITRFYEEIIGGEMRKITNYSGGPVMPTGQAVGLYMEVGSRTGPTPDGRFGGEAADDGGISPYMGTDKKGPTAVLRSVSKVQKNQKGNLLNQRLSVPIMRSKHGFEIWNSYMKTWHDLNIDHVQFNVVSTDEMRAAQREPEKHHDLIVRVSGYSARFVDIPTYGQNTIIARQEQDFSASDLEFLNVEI
T1 sequence (O68396 1-81 partner): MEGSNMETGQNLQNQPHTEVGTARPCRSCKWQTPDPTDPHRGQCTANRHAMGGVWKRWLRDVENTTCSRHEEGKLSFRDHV
T1 sequence (O68394 1-60 partner): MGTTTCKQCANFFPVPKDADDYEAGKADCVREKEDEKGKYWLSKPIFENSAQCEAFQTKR

Cc1ccccc1 [toluene]
X-ray crystal structure, 2.9 Å: In the active site, both toluene and fumarate were modeled and align well
